Experimental data from patent US20160311795A1, “PYRIMIDINE DIAMINE DERIVATIVES AS INHIBITORS OF CYTOSOLIC HSP90” (CALASIA PHARMACEUTICALS, INC., priority 2012, published 2016).

Legend:
[1] = system: mitochondria isolated from U251MG cells; test: Mitochondrial membrane potential in isolated TMRE-loaded mitochondria; type: cell-based, human; details: 10 μM or 2 μM, 30° C.
Experimental: Additional experiments were performed to determine the effect of SBI-0640725 on mitochondrial integrity. U251MG cells were treated with tetramethylrhodamine ethyl ester (TMRE), and fluorescence was visualized using fluorescence confocal microscopy (FIG. 16 panel A), or quantitated using a fluorimeter (FIG. 16 panel B) after cells had been treated with increasing concentrations of SBI-0640725 for 48 hours. […] In experiments using isolated mitochondria, mitochondrial membrane potential was determined as a measure of mitochondrial integrity. TMRE-loaded mitochondria isolated from U251MG cells were treated with either 10 μM (left bar of the pair in FIG. 17) or 2 μM (right bar of the pair in FIG. 17) SBI-0640725 while continually monitoring changes in fluorescence intensity at 30° C.

[2] = system: Caspase 3/7 activity in U251MG cells; test: Cellular Caspase-3/7 luminescence assay; type: cell-based, human; details: 72 hours
Experimental: Further, the effect of SBI-0640725 on cellular caspase levels was also quantitated in U251MG, MBA-MD-231 and HepG2 cells. Each cell type was treated with increasing concentrations of SBI-0640725 for 72 hours. Quantification of total cellular Caspase-3 and 7 activity was accomplished using a Caspase-3/7 luminescence assay kit (Promega) according to the manufacturer's recommendations, and analyzed with a POLARstar Omega micro-titer plate reader (BMG). […] Caspase activity is a marker for apoptotic cell death.

U251MG cells = test: Mitochondrial stress response, oxygen consumption rate (OCR); type: cell-based, human; details: FCCP as inducer of stress
Experimental: In further experiments, the effect of SBI-0640725 on mitochondrial stress response in U251MG cells was determined by measuring the mitochondrial oxygen consumption rate (OCR). The OCR was measured in real time, both before, and after treating U251 MG cells with increasing concentrations of SBI-0640725. The time of compound addition is indicated in FIG. 15A by the vertical line labeled D. Mitochondrial bioenergetics stress was determined by treating the cells sequentially with 0.125 mg/ml oligomycin (OA; vertical line O), […] carbonyl cyanide-4-(trifluoromethoxy)phenylhydrazone (FCCP; vertical line F) and […] rotenone (vertical line R) while continuing OCR measurement. Oligomycin (OA) generates mitochondrial stress by inhibiting ATP synthase and FCCP uncouples mitochondrial oxidative phosphorylation. The OCR data shown in FIG. 15A is presented in FIG. 15B after normalization using cell protein concentration, and subtracting extra-mitochondrial respiration, as determined by the respiration observed upon addition of rotenone. These experiments tested whether SBI-0640725 could inhibit the ability of mitochondria to compensate for these stressors. […] FCCP dissipates the electrochemical gradient that drives ATP synthesis. Thus, in order to maintain the membrane potential, mitochondria needs to increase the flow of electrons, thereby reflecting an increase in the OCR.

Akt1 in U251MG cells = test: Hsp90 client protein stability, Akt1 ELISA; type: cell-based, human; details: 48 hours, increasing concentrations
Experimental: In further experiments, the effect of SBI-0640725 on the stability of Hsp90 client proteins was analyzed. […] Akt1 protein levels were measured in cell lysates using ELISA.

Hsp70 in U251 MG cells = test: Hsp70 induction, ELISA; type: cell-based, human; details: U251MG, 48 hours
Experimental: Experiments were performed using U251 MG and MBA-MD-231 cells to also measure induction of Hsp 70 in response to treatment with SBI-0640725. […] For Hsp70 induction measurements, cells were treated with increasing concentrations of SBI-0640725 for 48 hours, and Hsp70 levels were measured in cell lysates using ELISA.

MDA-MB-231 = test: Cell viability / efficacy in breast cancer cells; type: cell-based
Experimental: The effect of SBI-0640725 on cell viability was determined by measuring cellular dehydrogenase activity (U251MG and MBA-MD-231 cells) or by measuring ADP levels (HepG2) after treating cells for 72 hours with increasing concentrations of SBI-0640725. To measure dehydrogenase activity, CCK-8 kit reagent (Dojindo) was added to the wells and incubated for 2 hours, after which absorbance was measured at 450 nm using a Synergy HT micro-titer plate reader (Biotek). To measure ADP levels, ADP-GLO reagent (Life Technologies) was added to the wells, and luminescence was measured after a 30 minute incubation using a POLARstar Omega micro-titer plate reader (BMG).
The table below summarizes efficacy of SBI-0640725 in various cancer cell lines, including U251MG, MDA-MB-231, and HepG2, using ADP-GLO assay described above. As used herein “efficacy” (EC50) is the concentration of a compound that produces half-maximal response in a cellular assay.

Akt1 = test: Rat CNS biomarker assay, Akt1 ELISA in CNS lysates; type: in vivo; details: intraperitoneally, versus vehicle
[3] = Rat CNS exposure (plasma and CNS tissue concentration, LC-MS/MS); type: in vivo; details: ex-vivo CNS tissue
Experimental: Test subjects (Sprague-Dawley rats) were housed in sterile vivarium with controlled temperature, humidity and 12-hour light-dark cycle (7:00 lights-on and 19:00 lights-off). Following procurement, rats were acclimated to the vivarium facility for 7 days prior to study day-1 with ad libitum access to both diet and water. Bedding was changed twice weekly. […] On study day-1 rats were administered vehicle or Hsp90 inhibitor formulation. Following administrations of test article formulation, blood and CNS tissue was collected at 6.5 h post-dosed by a necropsy procedure. In detail, CNS tissue was isolated from the Vehicle and dose groups, divided into 2 mid-sagittal sections, placed in tarred 1 mL micro-centrifuge tubes, weighed and immediately frozen on dry ice. Blood was isolated by a cardiac puncture procedure from the Vehicle and Hsp90 inhibitor dose groups. From these samples, plasma was isolated in plasma separator tubes containing ethylenediaminetetraacetic acid as the anticoagulant. HSP90 inhibitor concentrations in plasma and CNS tissue were determined using LC-MS/MS based methods following a 60% acetonitrile extraction.

Hsp90 = test: Rat CNS Hsp90 inhibition (ex vivo labeled geldanamycin displacement in CNS lysates); details: 40 mg/kg

Row | EC50 (MDA-MB-231; Homo sapiens, Breast Cancer, MDA-MB-231, ADP-GLO) [µM] | partitioning CNS (brain) versus plasma ([3]; listed as SB-0639353) | SMILES | mitochondrial membrane potential [1] | Caspase 3/7 activity [2] | mitochondrial stress response (OCR) (U251MG cells) | levels of the client protein Akt1 (Akt1 in U251MG cells) | induction of Hsp70 (Hsp70 in U251 MG cells) | cell viability (MDA-MB-231; MBA-MD-231, 72 hours, dehydrogenase activity (CCK-8)) | Akt1 level in CNS tissues (Akt1) | partitioning CNS (brain) versus plasma [3] | inhibition of Hsp90 activity in CNS tissues (Hsp90)
1 | 2.4 |  | COc1c(C)cnc(CN(CCc2ccc(F)cc2)c2cc(Cl)nc(N)n2)c1C [SBI-0640725] | mitochondrial membrane potential decreased | increase in Caspase 3/7 activity | significantly inhibit the ability of mitochondria to compensate for stress | progressive decrease in the levels of the client protein Akt1 | caused induction of Hsp70 | reduction in cell viability |  |  | 
2 |  | preferential partitioning | COc1c(C)cnc(CN(CCc2ccccc2)c2cc(Cl)nc(N)n2)c1C [SBI-0639353, 6-Chloro-N4-((4-methoxy-3,5-dimethylpyridin-2-yl)methyl)-N4-phenethylpyrimidine-2,4-diamine] |  |  |  |  |  |  | a decrease in its levels compared to vehicle treated rats | preferential partitioning into the brain compared to plasma | inhibition of Hsp90 activity
